Reference: article PMC9927415, “Tyrosine Kinase Inhibitors Display Potent Activity against Cryptosporidium parvum” (Microbiology Spectrum, 2022)

Key:
Experiment in all cases: KINOMEscan competitive binding, whole panel
[1] = biological target: T1, panel of 203 kinases (Homo sapiens, UniProt P53779); conditions: 10 µM, n=1; kinase JNK3; read-out: Percent inhibition JNK3
T1 construct: purchased DiscoverX (KINOMEscan)
Summary of the method: (§1)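 Kinases were expressed as T7 bacteriophage fusions, and test compounds competed with immobilized ATP-site probe ligands for binding. Kinase remaining bound to the solid-support probe was quantified, and values are given as percentage inhibition.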

[2] = biological target: T2, panel of 203 kinases (Homo sapiens, UniProt P54762); conditions: 10 µM, n=1; kinase EPHB1; read-out: Percent inhibition EPHB1
T2 construct: purchased DiscoverX (KINOMEscan)
T2 sequence (P54762 18-984): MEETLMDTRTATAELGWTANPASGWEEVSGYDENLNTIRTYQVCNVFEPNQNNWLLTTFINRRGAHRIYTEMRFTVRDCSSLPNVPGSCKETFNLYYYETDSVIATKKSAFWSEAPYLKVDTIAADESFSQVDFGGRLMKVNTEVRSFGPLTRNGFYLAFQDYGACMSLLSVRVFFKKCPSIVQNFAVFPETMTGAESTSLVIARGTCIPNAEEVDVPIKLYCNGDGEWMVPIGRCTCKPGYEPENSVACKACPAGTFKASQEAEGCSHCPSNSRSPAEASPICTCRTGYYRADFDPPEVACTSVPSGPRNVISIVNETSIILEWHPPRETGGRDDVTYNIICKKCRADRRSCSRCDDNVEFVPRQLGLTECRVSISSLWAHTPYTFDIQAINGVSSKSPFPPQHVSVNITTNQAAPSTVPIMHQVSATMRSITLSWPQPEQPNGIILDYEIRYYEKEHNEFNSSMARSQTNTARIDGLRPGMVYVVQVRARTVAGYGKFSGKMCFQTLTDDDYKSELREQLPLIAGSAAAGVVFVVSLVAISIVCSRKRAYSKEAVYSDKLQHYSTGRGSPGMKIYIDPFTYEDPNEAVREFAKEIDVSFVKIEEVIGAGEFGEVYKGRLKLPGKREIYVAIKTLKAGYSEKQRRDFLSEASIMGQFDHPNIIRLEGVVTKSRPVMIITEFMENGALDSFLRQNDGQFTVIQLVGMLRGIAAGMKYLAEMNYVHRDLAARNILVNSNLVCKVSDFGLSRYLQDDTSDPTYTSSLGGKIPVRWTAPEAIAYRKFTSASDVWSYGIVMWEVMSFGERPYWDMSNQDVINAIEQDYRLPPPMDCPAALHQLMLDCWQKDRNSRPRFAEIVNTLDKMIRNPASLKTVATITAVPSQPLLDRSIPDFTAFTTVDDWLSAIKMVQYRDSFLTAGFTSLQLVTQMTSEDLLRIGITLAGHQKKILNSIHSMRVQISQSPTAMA
Summary of the method: as §1

[3] = biological target: T3, panel of 203 kinases (Homo sapiens, UniProt Q99683); conditions: 10 µM, n=1; kinase MAP3K5; read-out: Percent inhibition MAP3K5
T3 construct: purchased DiscoverX (KINOMEscan)
T3 sequence (Q99683 1-1374): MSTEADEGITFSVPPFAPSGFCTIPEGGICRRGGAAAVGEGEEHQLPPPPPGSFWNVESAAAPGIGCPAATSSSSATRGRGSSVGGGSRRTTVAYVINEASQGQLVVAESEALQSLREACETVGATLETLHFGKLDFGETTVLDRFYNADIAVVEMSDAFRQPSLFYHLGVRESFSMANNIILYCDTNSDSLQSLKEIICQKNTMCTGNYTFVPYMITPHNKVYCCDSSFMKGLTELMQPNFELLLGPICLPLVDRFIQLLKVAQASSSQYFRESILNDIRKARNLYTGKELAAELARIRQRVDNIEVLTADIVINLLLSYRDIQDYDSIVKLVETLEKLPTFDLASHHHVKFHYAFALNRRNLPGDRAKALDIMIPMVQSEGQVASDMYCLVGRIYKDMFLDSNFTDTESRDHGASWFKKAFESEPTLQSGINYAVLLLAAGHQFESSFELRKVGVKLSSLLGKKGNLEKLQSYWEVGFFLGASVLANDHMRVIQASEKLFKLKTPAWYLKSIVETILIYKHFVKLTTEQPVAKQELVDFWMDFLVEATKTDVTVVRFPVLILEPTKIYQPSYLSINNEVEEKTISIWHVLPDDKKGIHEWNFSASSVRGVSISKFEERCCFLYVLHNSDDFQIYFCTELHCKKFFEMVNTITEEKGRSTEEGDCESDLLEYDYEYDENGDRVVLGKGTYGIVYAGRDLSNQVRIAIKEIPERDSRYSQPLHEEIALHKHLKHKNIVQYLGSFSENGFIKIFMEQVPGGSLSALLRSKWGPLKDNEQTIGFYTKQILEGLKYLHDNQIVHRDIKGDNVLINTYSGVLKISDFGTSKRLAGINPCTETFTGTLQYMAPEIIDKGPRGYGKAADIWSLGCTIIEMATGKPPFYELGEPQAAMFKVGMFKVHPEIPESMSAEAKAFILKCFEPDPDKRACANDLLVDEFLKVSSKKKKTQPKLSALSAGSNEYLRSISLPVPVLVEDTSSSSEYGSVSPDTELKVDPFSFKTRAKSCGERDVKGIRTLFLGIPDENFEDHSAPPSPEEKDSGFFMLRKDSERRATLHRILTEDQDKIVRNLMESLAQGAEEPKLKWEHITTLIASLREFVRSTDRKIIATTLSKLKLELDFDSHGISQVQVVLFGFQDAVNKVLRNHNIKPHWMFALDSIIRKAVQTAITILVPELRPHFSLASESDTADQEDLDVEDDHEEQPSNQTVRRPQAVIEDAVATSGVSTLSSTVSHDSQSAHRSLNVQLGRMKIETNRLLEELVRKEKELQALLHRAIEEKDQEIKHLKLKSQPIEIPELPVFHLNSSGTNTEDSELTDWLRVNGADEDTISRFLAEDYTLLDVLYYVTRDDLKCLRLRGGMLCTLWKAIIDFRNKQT
Summary of the method: as §1

T1 sequence (P53779 whole entry): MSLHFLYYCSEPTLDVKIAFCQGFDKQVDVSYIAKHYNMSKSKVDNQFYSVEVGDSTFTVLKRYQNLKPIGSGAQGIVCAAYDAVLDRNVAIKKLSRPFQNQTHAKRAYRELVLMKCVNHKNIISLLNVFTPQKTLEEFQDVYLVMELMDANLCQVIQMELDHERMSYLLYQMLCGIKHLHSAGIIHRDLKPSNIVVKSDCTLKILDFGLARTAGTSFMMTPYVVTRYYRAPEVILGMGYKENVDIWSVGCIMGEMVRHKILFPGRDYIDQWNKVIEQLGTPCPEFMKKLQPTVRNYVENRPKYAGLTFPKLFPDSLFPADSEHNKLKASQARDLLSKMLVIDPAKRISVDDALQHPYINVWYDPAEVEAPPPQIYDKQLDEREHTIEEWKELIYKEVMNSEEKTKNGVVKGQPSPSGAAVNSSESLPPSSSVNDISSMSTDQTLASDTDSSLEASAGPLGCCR

| SMILES | inhibition at 10 µM [1] [%] | inhibition at 10 µM [2] [%] | inhibition at 10 µM [3] [%] |
| --- | --- | --- | --- |
| CN1CCN(c2ccc(Nc3nccc(-c4cnn5ncccc45)n3)cc2C#N)CC1 [Compound 1] | 100 | 99.3 | 0 |
| COc1ccc(Nc2nccc(-c3cnn4ncccc34)n2)cc1 [Compound 2] | 100 | 99.8 | 0 |
| Cc1ccc(O)cc1Nc1ccnc(Nc2cccc(C(N)=O)c2)n1 [Compound 3] | 94.2 | 100 | 0 |
| Cc1ccc(O)cc1N(C)c1ccnc(Nc2cccc(S(N)(=O)=O)c2)n1 [Compound 4] | 96.1 | 100 | 0 |
| Fc1cccc(COc2ccc(Nc3ncnc4c3CN(CCN3CCOCC3)CC4)cc2Cl)c1 [Compound 6] | 0 | 0 | 0 |
| COc1cc(Nc2nccc(-c3sc(N)nc3-c3cccc(NC(=O)c4c(F)cccc4F)c3)n2)cc(OC)c1OC [Compound 7] | 100 | 100 | 0 |
| C[C@@H](Oc1cc(-c2cnc3ccccn23)sc1C(N)=O)c1ccccc1Cl [Compound 8] | 0 | 0 | 0 |
| c1ccc(COc2cccc(-c3ccnc4[nH]ccc34)c2)cc1 [Compound 9] | 0 | 0 | 0 |
| Clc1ccc(Nc2ncc(-c3ccccc3)s2)cc1 [Compound 10] | 0 | 0 | 0 |
| Nc1ncc2c(-c3ccncc3)c[nH]c2n1 [Compound 11] | 97.1 | 81.9 | 0 |
